Measurements: article PMC8359378 (British Journal of Clinical Pharmacology, 2021)
“Also recorded” adds a separate entry of the source.

Legend:
healthy subjects = experiment: safety and tolerability; type: in vivo, human; details: for Dizziness TEAE, subjects / Headache TEAE, subjects / Muscle twitching TEAE, subjects / All TEAEs, subjects / Bleeding time prolonged TEAE, subjects: Part B, fed
human FXIa = details: competitive and reversible inhibition; cited from earlier work
[1] = plasma pharmacokinetics in first‐in‐human study; type: in vivo; details: for Tmax: human, plasma
[2] = biological target: factor XI coagulation activity (FXI:C) (Homo sapiens, UniProt P03951); experiment: factor XI coagulation activity; type: in vivo
Chain of factor XI coagulation activity (FXI:C) (P03951 388-625 limits assumed): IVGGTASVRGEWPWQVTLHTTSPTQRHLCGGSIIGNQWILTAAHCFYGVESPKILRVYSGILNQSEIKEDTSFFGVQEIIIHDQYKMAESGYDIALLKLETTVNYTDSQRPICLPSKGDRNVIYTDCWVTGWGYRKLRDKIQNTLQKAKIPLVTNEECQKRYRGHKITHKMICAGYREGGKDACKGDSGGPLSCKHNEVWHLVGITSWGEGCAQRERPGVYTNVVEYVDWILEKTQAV
Chain of factor XI coagulation activity (FXI:C) (P03951 19-387 partner limits assumed): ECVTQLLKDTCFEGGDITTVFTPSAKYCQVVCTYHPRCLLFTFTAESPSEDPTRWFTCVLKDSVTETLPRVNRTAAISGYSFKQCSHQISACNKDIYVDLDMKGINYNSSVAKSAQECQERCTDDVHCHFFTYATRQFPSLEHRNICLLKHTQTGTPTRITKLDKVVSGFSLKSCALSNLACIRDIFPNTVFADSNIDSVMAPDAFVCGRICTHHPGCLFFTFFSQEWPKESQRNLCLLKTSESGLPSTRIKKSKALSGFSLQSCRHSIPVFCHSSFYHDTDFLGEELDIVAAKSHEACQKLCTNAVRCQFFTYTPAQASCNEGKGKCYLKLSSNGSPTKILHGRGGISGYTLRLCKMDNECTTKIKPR

[3] = system: monkey nail‐cut bleeding model; details: preclinical; cited from earlier work
[4] = system: FXa, FIXa, FXIIa, FVIIa, thrombin, tPA, urokinase and plasmin; details: cited from earlier work
[5] = Part A, single dose 1 mg, fasted
[6] = Part A, single dose 5 mg, fasted
[7] = Part A, single dose 20 mg, fasted
[8] = Part A, single dose 80 mg, fasted
[9] = Part A, single dose 150 mg, fasted
[10] = Part A, single dose 300 mg, fasted

- time of peak mean plasma concentration post‐dose ([1]; Part A, 80 mg fed cohort): approximately 8 hours
- fold increase of AUCinf with a 300‐fold increase in dose ([1]; Part A, 1–300 mg): ~416 fold
- fold increase of Cmax with a 300‐fold increase in dose ([1]; Part A, 1–300 mg): about 308 fold
- time of peak mean plasma concentration post‐dose ([1]; Part A, each cohort except 80 mg fed): approximately 4 hours
- AUC24 accumulation GM ratio Day 14 versus Day 1 ([1]; Part B, 80 mg QD): 2.33
- Cmax accumulation GM ratio Day 14 versus Day 1 ([1]; Part B, 80 mg QD): 1.88
- AUC24 accumulation GM ratio Day 14 versus Day 1 ([1]; Part B, 150 mg QD): 2.22
- Cmax accumulation GM ratio Day 14 versus Day 1 ([1]; Part B, 150 mg QD): 1.90
- AUC24 accumulation GM ratio Day 14 versus Day 1 ([1]; Part B, 250 mg QD): 2.41
- Cmax accumulation GM ratio Day 14 versus Day 1 ([1]; Part B, 250 mg QD): 2.09
- fold increase of AUC24 with a 3.1‐fold increase in dose ([1]; Part B, 80–250 mg QD, Day 14): approximately 3.6 fold
- fold increase of Cmax with a 3.1‐fold increase in dose ([1]; Part B, 80–250 mg QD, Day 14): approximately 3.6 fold
- time for plasma concentrations to decrease to baseline levels ([1]; Part B, after final dose on Day 14): ≤ 72 h
- time to reach steady state ([1]; Part B, daily dosing): ≤ 6 days
- Tmax ([1]; oral, median range across cohorts, Part A, fasted cohorts): 2.5 to 4 h
- Tmax ([1]; oral, median range across cohorts, Part B, Day 1): 2.5 to 4 h
- Tmax ([1]; oral, median range across cohorts, Part B, Day 14): 4 to 4.01 h
- Tmax ([1]; po, 1 mg, median (range), Part A, single dose 1 mg, fasted): 2.5 h
- Tmax ([1]; po, 5 mg, median (range), Part A, single dose 5 mg, fasted): 3.5 h
- Tmax ([1]; po, 80 mg, median (range), Part A, single dose 80 mg, fed): 7.05 h
- Tmax ([1]; po, 80 mg, median (range), Part B, 80 mg QD fed, Day 1): 2.5 h
- Tmax ([1]; po, 80 mg, median (range), Part B, 80 mg QD fed, Day 14): 4.01 h
- Tmax ([1]; po, 150 mg, median (range), Part B, 150 mg QD fed, Day 1): 4 h
- Tmax ([1]; po, 150 mg, median (range), Part B, 150 mg QD fed, Day 14): 4.01 h
- Tmax ([1]; po, 250 mg, median (range), Part B, 250 mg QD fed, Day 1): 4 h
- Tmax ([1]; po, 250 mg, median (range), Part B, 250 mg QD fed, Day 14): 4 h
- time of maximal inhibition of FXI:C post‐dose ([2]; Part A, 80 mg fed group): approximately 8 hours
- time of return of FXI:C and aPTT to near baseline levels post‐dose ([2]; Part A, 80, 150 and 300 mg): ≤ 72 h
- time the effects on FXI:C and aPTT were maintained ([2]; Part A, 80, 150 and 300 mg): up to 24 hours
- FXI:C Day 1 24 hours RTB, mean ± SD [2, 5]: 0.95 ± 0.141
- FXI:C Day 1 24 hours inhibition, mean ± SD [2, 5]: 5 ± 14.1%
- FXI:C Maximum on treatment inhibition, mean ± SD [2, 5]: 13 ± 7.7%
- FXI:C Day 1 24 hours RTB, mean ± SD [2, 6]: 0.95 ± 0.049
- FXI:C Day 1 24 hours inhibition, mean ± SD [2, 6]: 5 ± 4.9%
- FXI:C Maximum on treatment inhibition, mean ± SD [2, 6]: 10 ± 2.6%
- FXI:C Minimum on treatment RTB, mean ± SD [2, 6]: 0.90 ± 0.026
- FXI:C Day 1 24 hours RTB, mean ± SD [2, 7]: 0.95 ± 0.185
- FXI:C Day 1 24 hours inhibition, mean ± SD [2, 7]: 5 ± 18.5%
- FXI:C Maximum on treatment inhibition, mean ± SD [2, 7]: 29 ± 4.8%
- FXI:C Minimum on treatment RTB, mean ± SD [2, 7]: 0.71 ± 0.048
- FXI:C Day 1 24 hours RTB, mean ± SD [2, 8]: 0.61 ± 0.051
- FXI:C Day 1 24 hours inhibition, mean ± SD [2, 8]: 39 ± 5.1%
- FXI:C Maximum on treatment inhibition, mean ± SD [2, 8]: 69 ± 7.0%
- FXI:C Minimum on treatment RTB, mean ± SD [2, 8]: 0.31 ± 0.070
- FXI:C Day 1 24 hours RTB, mean ± SD ([2]; Part A, single dose 80 mg, fed): 0.61 ± 0.066
- FXI:C Day 1 24 hours inhibition, mean ± SD ([2]; Part A, single dose 80 mg, fed): 39 ± 6.6%
- FXI:C Maximum on treatment inhibition, mean ± SD ([2]; Part A, single dose 80 mg, fed): 54 ± 8.9%
- FXI:C Minimum on treatment RTB, mean ± SD ([2]; Part A, single dose 80 mg, fed): 0.46 ± 0.089
- FXI:C Day 1 24 hours RTB, mean ± SD [2, 9]: 0.48 ± 0.057
- FXI:C Maximum on treatment inhibition, mean ± SD [2, 9]: 78 ± 3.4%
- FXI:C Minimum on treatment RTB, mean ± SD [2, 9]: 0.22 ± 0.034
- FXI:C Day 1 24 hours RTB, mean ± SD [2, 10]: 0.26 ± 0.089
- FXI:C Day 1 24 hours inhibition, mean ± SD [2, 10]: 74 ± 8.9%
- time of maximal inhibition of FXI:C post‐dose ([2]; Part A, single dose of 20–300 mg): approximately 4 hours
- FXI:C Minimum on treatment RTB, mean ± SD ([2]; Part B, 80 mg QD for 14 days, fed): 0.25 ± 0.077
- FXI:C Day 1 24 hours RTB, mean ± SD ([2]; Part B, 80 mg QD, fed): 0.67 ± 0.035
- FXI:C Day 14 24 hours RTB, mean ± SD ([2]; Part B, 80 mg QD, fed): 0.39 ± 0.111
- FXI:C Minimum on treatment RTB, mean ± SD ([2]; Part B, 150 mg QD for 14 days, fed): 0.15 ± 0.052
- FXI:C Day 1 24 hours RTB, mean ± SD ([2]; Part B, 150 mg QD, fed): 0.48 ± 0.112
- FXI:C Day 14 24 hours RTB, mean ± SD ([2]; Part B, 150 mg QD, fed): 0.27 ± 0.096
- FXI:C Day 1 24 hours RTB, mean ± SD ([2]; Part B, 250 mg QD, fed): 0.33 ± 0.065
- FXI:C Day 14 24 hours RTB, mean ± SD ([2]; Part B, 250 mg QD, fed): 0.14 ± 0.053
- time of maximal inhibition of FXI:C post‐dose ([2]; Part B, first dose of 80, 150 and 250 mg): approximately 4 hours
SMILES: Nc1ccc(-c2nc([C@H]3CCc4cc(-c5cc(Cl)ccc5-n5cnnn5)cc(=O)n43)c(F)[nH]2)c(F)n1 [ONO‐7684]
- Dizziness TEAE, subjects (healthy subjects; 80 mg QD for 14 days): 1 (16.7) n (%)
- Headache TEAE, subjects (healthy subjects; 80 mg QD for 14 days): 1 (16.7) n (%)
- Muscle twitching TEAE, subjects (healthy subjects; 80 mg QD for 14 days): 1 (16.7) n (%)
- All TEAEs, subjects (healthy subjects; 150 mg QD for 14 days): No TEAEs
- Bleeding time prolonged TEAE, subjects (healthy subjects; 150 mg QD for 14 days): 0 n (%)
- Dizziness TEAE, subjects (healthy subjects; 150 mg QD for 14 days): 0 n (%)
- Headache TEAE, subjects (healthy subjects; 150 mg QD for 14 days): 0 n (%)
- Muscle twitching TEAE, subjects (healthy subjects; 150 mg QD for 14 days): 0 n (%)
- All TEAEs, subjects (healthy subjects; 150 mg QD for 14 days, listed as ONO 7684): 0 n (%)
- All TEAEs, subjects (healthy subjects; 250 mg QD for 14 days): No TEAEs
- Bleeding time prolonged TEAE, subjects (healthy subjects; 250 mg QD for 14 days): 0 n (%)
- Dizziness TEAE, subjects (healthy subjects; 250 mg QD for 14 days): 0 n (%)
- Headache TEAE, subjects (healthy subjects; 250 mg QD for 14 days): 0 n (%)
- Muscle twitching TEAE, subjects (healthy subjects; 250 mg QD for 14 days): 0 n (%)
- All TEAEs, subjects (healthy subjects; 250 mg QD for 14 days, listed as ONO 7684): 0 n (%)
- bleeding risk (healthy subjects; Parts A and B): no evidence to suggest a bleeding risk; also recorded: no evidence of a bleeding risk
- severe or serious TEAEs, TEAEs leading to discontinuation (healthy subjects; Parts A and B): no severe or serious TEAEs
- tolerability (healthy subjects; all dose levels, single and repeated doses): well tolerated at all dose levels tested
- Ki (human FXIa): 2 nM
- bleeding time [3]: did not prolong bleeding time
- selectivity for FXIa relative to other coagulation/fibrinolysis factors [4]: highly selective for FXIa
